Data taken from paper PMC12203311, “Design, synthesis, in silico and in vitro evaluation of pyrrole–indole hybrids as dual tubulin and aromatase inhibitors with potent anticancer activities” (RSC Advances, 2025).
Read-outs that look alike come from different tables or passages of the source.

Legend:
TK-10 = test: NCI60 five-dose screen; assay type: cell-based; details: Homo sapiens, TK-10, renal cancer; for CC50: read-out: LC50 (the source's name)
[1] = system: T47D breast cancer cell line; test: Cytotoxicity MTT assay, T47D; assay type: cell-based, human
Procedure: T47D (ATCC HTB-133) was purchased from Biomedia (Thailand) Co., LTD. L929 (ATCC CCL-1) was received as a gift from Prof. Tanapat Palaga, Department of Microbiology, Faculty of Science, Chulalongkorn University, Bangkok, Thailand. The cells were cultured in Dulbecco's Modified Eagle's Medium (DMEM; Gibco) supplemented with 10% fetal bovine serum (FBS; HyClone), 100 U mL^−1 penicillin and 100 µg mL^−1 streptomycin (Gibco) at 37 °C with 5% CO2.
The antiproliferative activity was determined by MTT assay. Briefly, the cells were plated into a 96-well microplate at the density of 10 000 cells per well. The cells were allowed to grow overnight before treated with the solutions of compounds in culture medium at the designated concentrations for 48 hours. The medium was then replaced with MTT solution (0.5 mg mL^−1 MTT in culture medium) and incubated for 3 hours. A 100 µL of DMSO was used to dissolve the produced formazan. Absorbance at 570 nm was then measured using a microplate reader (Varioskan™ LUX multimode microplate reader, Thermo Scientific™). Percent viability was calculated relative to the vehicle control (DMSO).

DU-145 = test: NCI60 five-dose screen; assay type: cell-based; details: Homo sapiens, DU-145, prostate cancer; for CC50: read-out: LC50 (the source's name)
NCI/ADR-RES = test: NCI60 five-dose screen; assay type: cell-based, human; details: ovarian cancer; for CC50: read-out: LC50 (the source's name)
OVCAR-3 = test: NCI60 five-dose screen; assay type: cell-based; details: Homo sapiens, OVCAR-3, ovarian cancer; for CC50: read-out: LC50 (the source's name)
Human CYP19 (aromatase) = target: T1, Human CYP19 (aromatase) (Homo sapiens, UniProt P11511); test: Aromatase inhibition assay (DBF fluorometric substrate); assay type: biochemical; details: active defined as IC50 < 12.5 µM
T1 construct: purchased GENTEST, Woburn, MA 456260; host or cells: baculovirus/insect cells
T1 sequence (P11511 1-503): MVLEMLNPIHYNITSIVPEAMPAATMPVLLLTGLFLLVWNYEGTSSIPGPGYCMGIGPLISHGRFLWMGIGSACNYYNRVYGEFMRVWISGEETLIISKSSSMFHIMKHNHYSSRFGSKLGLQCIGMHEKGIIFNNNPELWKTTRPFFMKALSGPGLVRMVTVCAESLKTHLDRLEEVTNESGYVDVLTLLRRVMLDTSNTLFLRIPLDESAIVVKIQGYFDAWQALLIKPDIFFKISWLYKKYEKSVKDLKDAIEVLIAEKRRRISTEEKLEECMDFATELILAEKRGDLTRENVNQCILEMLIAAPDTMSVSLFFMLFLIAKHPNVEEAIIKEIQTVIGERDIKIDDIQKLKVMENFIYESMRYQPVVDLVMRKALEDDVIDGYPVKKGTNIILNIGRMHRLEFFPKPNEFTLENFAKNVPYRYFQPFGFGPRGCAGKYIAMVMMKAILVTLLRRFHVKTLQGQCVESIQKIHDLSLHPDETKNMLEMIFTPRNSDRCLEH
Procedure: Aromatase enzyme was purchased from GENTEST, Woburn, MA01801, USA (Supersom human CYP19+oxidoreductase, baculovirus/insect cell-expressed; Product No. 456260). The aromatase inhibitory activity was performed using Human CYP19 enzymes and DBF as a fluorometric substrate as described by Stresser, et al.[41] with minor modifications. The mixture, containing 100 µL of cofactor/serial dilution buffer was pre-incubated in 37 °C for 10 min. […] After incubation at 37 °C for 30 min, the reaction was stopped by addition of 50 µL of 2.2 M NaOH. Fluorescence signal was monitored using an excitation wavelength of 490 nm and emission wavelength of 530 nm.

T-47D = test: NCI60 five-dose screen; assay type: cell-based; details: Homo sapiens, T47D, breast cancer; for CC50: read-out: LC50 (the source's name)
MDA-MB-231/ATCC = test: NCI60 five-dose screen; assay type: cell-based; details: Homo sapiens, breast cancer; for CC50: read-out: LC50 (the source's name)
SF-539 = test: NCI60 five-dose screen; assay type: cell-based; details: Homo sapiens, SF-539, CNS cancer; for CC50: read-out: LC50 (the source's name)
EKVX = test: NCI60 five-dose screen; assay type: cell-based; details: Homo sapiens, NSC lung cancer; for CC50: read-out: LC50 (the source's name)
ACHN = test: NCI60 five-dose screen; assay type: cell-based; details: Homo sapiens, renal cancer; for CC50: read-out: LC50 (the source's name)
HCC-2998 = test: NCI60 five-dose screen; assay type: cell-based; details: Homo sapiens, HCC-2998, colon cancer; for CC50: read-out: LC50 (the source's name)
SW-620 = test: NCI60 five-dose screen; assay type: cell-based; details: Homo sapiens, SW-620, colon cancer; for CC50: read-out: LC50 (the source's name)
OVCAR-5 = test: NCI60 five-dose screen; assay type: cell-based; details: Homo sapiens, OVCAR-5, ovarian cancer; for CC50: read-out: LC50 (the source's name)
HT29 = test: NCI60 five-dose screen; assay type: cell-based; details: Homo sapiens, HT-29, HT29, colon cancer; for CC50: read-out: LC50 (the source's name)
K-562 = test: NCI60 five-dose screen; assay type: cell-based; details: Homo sapiens, K562, K-562, leukemia; for CC50: read-out: LC50 (the source's name)
NCI-H522 = test: NCI60 five-dose screen; assay type: cell-based; details: Homo sapiens, NCI-H522, NSC lung cancer; for CC50: read-out: LC50 (the source's name)
M14 = test: NCI60 five-dose screen; assay type: cell-based; details: Homo sapiens, M14, melanoma; for CC50: read-out: LC50 (the source's name)
MCF7 = test: NCI60 five-dose screen; assay type: cell-based; details: Homo sapiens, MCF7, breast cancer; for CC50: read-out: LC50 (the source's name)
SK-MEL-2 = test: NCI60 five-dose screen; assay type: cell-based; details: Homo sapiens, SK-MEL-2, melanoma; for CC50: read-out: LC50 (the source's name)
UACC-62 = test: NCI60 five-dose screen; assay type: cell-based; details: Homo sapiens, UACC-62, melanoma; for CC50: read-out: LC50 (the source's name)
SNB-19 = test: NCI60 five-dose screen; assay type: cell-based; details: Homo sapiens, SNB-19, CNS cancer; for CC50: read-out: LC50 (the source's name)

**Q.** What does the source list for `O=C(N/N=C/c1cc([N+](=O)[O-])c[nH]1)c1[nH]c2ccc(Br)cc2c1-c1ccccc1` [Derivative 3q, (E)-5-Bromo-N′-((4-nitro-1H-pyrrol-2-yl)methylene)-3-phenyl-1H-indole-2-carbohydrazide]?
**A.** GI50 (TK-10): 76 µM; CC50 (TK-10): > 100 µM; activity against T47D in two-dose screen ([1]; 10 µM and 50 µM): weak activity; GI50 (DU-145): 3.87 µM; CC50 (DU-145): > 100 µM; GI50 (NCI/ADR-RES; Homo sapiens): 0.434 µM; CC50 (NCI/ADR-RES; Homo sapiens): > 100 µM; GI50 (OVCAR-3): 0.397 µM; CC50 (OVCAR-3): > 100 µM; IC50 (Human CYP19 (aromatase)): > 12.5 µM; aromatase inhibition (Human CYP19 (aromatase)): inactive against aromatase; GI50 (T-47D): 2.21 µM; CC50 (T-47D): > 100 µM; GI50 (MDA-MB-231/ATCC): 17.4 µM; CC50 (MDA-MB-231/ATCC): > 100 µM; GI50 (SF-539): 0.822 µM; CC50 (SF-539): > 100 µM; GI50 (EKVX): > 100 µM; CC50 (EKVX): > 100 µM; GI50 (ACHN): 0.791 µM; CC50 (ACHN): > 100 µM; GI50 (HCC-2998): 3.66 µM; CC50 (HCC-2998): > 100 µM; GI50 (SW-620): 0.38 µM; CC50 (SW-620): > 100 µM; GI50 (OVCAR-5): 5.37 µM; CC50 (OVCAR-5): > 100 µM; GI50 (HT29): 0.469 µM; CC50 (HT29): > 100 µM; GI50 (K-562): 0.387 µM; CC50 (K-562): > 100 µM; GI50 (NCI-H522): 0.722 µM; CC50 (NCI-H522): > 100 µM; GI50 (M14): 0.574 µM; CC50 (M14): > 100 µM; GI50 (MCF7): 0.354 µM; CC50 (MCF7): > 100 µM; GI50 (SK-MEL-2): 1.3 µM; CC50 (SK-MEL-2): > 100 µM; GI50 (UACC-62): 0.538 µM; CC50 (UACC-62): > 100 µM; GI50 (SNB-19): 6.25 µM; CC50 (SNB-19): > 100 µM

**Q.** With `O=C(N/N=C/c1cc(Br)c[nH]1)c1[nH]c2ccc(Br)cc2c1-c1ccccc1` [Derivative 3e, (E)-5-Bromo-N′-((4-bromo-1H-pyrrol-2-yl)methylene)-3-phenyl-1H-indole-2-carbohydrazide] as the molecule, how does the GI50 (TK-10) read?
**A.** 4.21 µM

**Q.** What about the CC50 (TK-10) of the same molecule?
**A.** 44.9 µM

**Q.** What about the IC50 ([1]; Homo sapiens, T47D, MTT, 48 hours) of the same molecule?
**A.** 2.4 ± 1.4 µM

**Q.** And the GI50 (DU-145)?
**A.** 0.352 µM

**Q.** And the CC50 (DU-145)?
**A.** 29.7 µM

**Q.** And the GI50 (NCI/ADR-RES; Homo sapiens)?
**A.** 0.197 µM

**Q.** What about the CC50 (NCI/ADR-RES; Homo sapiens) of the same molecule?
**A.** 0.97 µM

**Q.** What about the CC50 (NCI/ADR-RES) of the same molecule?
**A.** 0.971 µM

**Q.** What about the GI50 (OVCAR-3) of the same molecule?
**A.** 0.302 µM

**Q.** What about the CC50 (OVCAR-3) of the same molecule?
**A.** 17.3 µM

**Q.** What about the IC50 (Human CYP19 (aromatase)) of the same molecule?
**A.** 4 ± 1 µM

**Q.** What about the GI50 (T-47D) of the same molecule?
**A.** 1.4 µM

**Q.** And the CC50 (T-47D)?
**A.** 82.5 µM

**Q.** And the GI50 (MDA-MB-231/ATCC)?
**A.** 0.215 µM

**Q.** What about the CC50 (MDA-MB-231/ATCC) of the same molecule?
**A.** 14.3 µM

**Q.** And the GI50 (SF-539)?
**A.** 0.214 µM

**Q.** And the CC50 (SF-539)?
**A.** 25.5 µM

**Q.** And the GI50 (EKVX)?
**A.** 0.62 µM

**Q.** And the CC50 (EKVX)?
**A.** 34.3 µM

**Q.** What about the GI50 (ACHN) of the same molecule?
**A.** 0.418 µM

**Q.** What about the CC50 (ACHN) of the same molecule?
**A.** 23.5 µM

**Q.** And the GI50 (HCC-2998)?
**A.** 0.296 µM

**Q.** And the CC50 (HCC-2998)?
**A.** 15.6 µM

**Q.** And the GI50 (SW-620)?
**A.** 0.405 µM

**Q.** And the CC50 (SW-620)?
**A.** 59.4 µM

**Q.** What about the GI50 (OVCAR-5) of the same molecule?
**A.** 0.346 µM

**Q.** What about the CC50 (OVCAR-5) of the same molecule?
**A.** 26.5 µM

**Q.** And the GI50 (HT29)?
**A.** 0.345 µM

**Q.** And the CC50 (HT29)?
**A.** 8.24 µM

**Q.** What about the GI50 (K-562) of the same molecule?
**A.** 0.393 µM

**Q.** And the CC50 (K-562)?
**A.** > 100 µM

**Q.** What about the GI50 (NCI-H522) of the same molecule?
**A.** 0.185 µM

**Q.** And the CC50 (NCI-H522)?
**A.** 19.1 µM

**Q.** And the GI50 (M14)?
**A.** 0.27 µM

**Q.** And the CC50 (M14)?
**A.** 20.2 µM

**Q.** What about the GI50 (MCF7) of the same molecule?
**A.** 0.294 µM

**Q.** And the CC50 (MCF7)?
**A.** 30.7 µM

**Q.** What about the GI50 (SK-MEL-2) of the same molecule?
**A.** 0.322 µM

**Q.** And the CC50 (SK-MEL-2)?
**A.** 38.1 µM

**Q.** And the GI50 (UACC-62)?
**A.** 0.439 µM

**Q.** And the CC50 (UACC-62)?
**A.** 17.7 µM

**Q.** And the GI50 (SNB-19)?
**A.** 0.33 µM

**Q.** And the CC50 (SNB-19)?
**A.** 34.5 µM
